From patent US9611248B2, “Chemical compounds” (Syngenta Participations AG, priority 2013, dated 2017)

System: a variety of test species
Experiment: Post-emergence herbicidal activity
Assay type: in vivo
Parameters: key to ABUTH (Abutilon theophrasti) damage score / AMARE (Amaranthus retroflexus) damage score / ALOMY (Alopecurus myosuroides) damage score / ECHCG (Echinochloa crus-galli) damage score / ZEAMX (Zea mays) damage score / SOLNI (Solanum nigrum) damage score: 0 = no damage to plant, 5 = total damage to plant
Conditions: evaluated after 13 days
Protocol: Seeds of a variety of test species were sown in standard soil in pots. After 8 days cultivation (post-emergence) under controlled conditions in a glasshouse (at 24/16° C., day/night; 14 hours light; 65% humidity), the plants were sprayed with an aqueous spray solution derived from the formulation of the technical active ingredient in acetone/water (50:50) solution containing 0.5% Tween 20 (polyoxyethelyene sorbitan monolaurate, CAS RN 9005-64-5). The test plants were then grown in a glasshouse under controlled conditions (at 24/16° C., day/night; 14 hours light; 65% humidity) and watered twice daily. After 13 days, the test was evaluated (5=total damage to plant; 0=no damage to plant, NC=not captured).

Compound | ABUTH (Abutilon theophrasti) damage score (rate 1000 g/ha) | ALOMY (Alopecurus myosuroides) damage score (rate 1000 g/ha) | AMARE (Amaranthus retroflexus) damage score (rate 1000 g/ha) | ECHCG (Echinochloa crus-galli) damage score (rate 1000 g/ha) | SETFA (Setaria faberi) damage score (rate 1000 g/ha) | ZEAMX (Zea mays) damage score (rate 1000 g/ha) | ABUTH (Abutilon theophrasti) damage score (rate 250 g/ha) | ALOMY (Alopecurus myosuroides) damage score (rate 250 g/ha) | AMARE (Amaranthus retroflexus) damage score (rate 250 g/ha) | ECHCG (Echinochloa crus-galli) damage score (rate 250 g/ha) | SETFA (Setaria faberi) damage score (rate 250 g/ha) | ZEAMX (Zea mays) damage score (rate 250 g/ha)
COC1=C(Cl)C(O)N(c2cc(C(F)(F)F)ccn2)C1=O (stereo not drawn) [AF2] | 5 | 4 | 5 | 5 | 5 | 3 | – | – | – | – | – | –
COC1=C(C)C(=O)N(c2ccc(C(=O)NC(C)(C)C)nn2)C1O (stereo not drawn) [BD13] | 5 | 5 | 5 | 5 | 5 | 4 | – | – | – | – | – | –
COC1=C(C)C(=O)N(c2cc(C(C)(C)C)c(N3CC(F)(F)C3)nn2)C1O (stereo not drawn) [BD12] | 5 | 4 | 5 | 5 | 5 | 2 | – | – | – | – | – | –
COC1=C(C)C(=O)N(c2cc(C)c(S(=O)(=O)N3CCCCC3)cn2)C1O (stereo not drawn) [AD97] | 0 | 0 | 0 | 0 | 0 | 0 | – | – | – | – | – | –
COC1=C(C)C(=O)N(c2cc(C)c(-c3ccc(F)cc3)cn2)C1O (stereo not drawn) [AD60] | 5 | 2 | 5 | 1 | 4 | 1 | – | – | – | – | – | –
CCCC1=C(Cl)C(O)N(c2cc(C(C)(C)C#N)ncn2)C1=O (stereo not drawn) [CA4] | 2 | 1 | 1 | 0 | 1 | 1 | – | – | – | – | – | –
CC1=C(Br)C(O)N(c2cc(C(F)(F)F)ncn2)C1=O (stereo not drawn) [CB1] | 1 | 1 | 1 | 1 | 0 | 1 | – | – | – | – | – | –
CC1=C(Cl)C(O)N(c2cc(C#N)ccn2)C1=O (stereo not drawn) [AA20] | 1 | 1 | 0 | 1 | 1 | 0 | – | – | – | – | – | –
COC1=C(C)C(=O)N(c2cc(C)c(-c3ccc(F)cc3C)cn2)C1O (stereo not drawn) [AD65] | 4 | 2 | 5 | 4 | 5 | 1 | – | – | – | – | – | –
COC1=C(C)C(=O)N(c2cc(C(F)(F)F)c(OCCOC(C)(C)C)cn2)C1O (stereo not drawn) [AD80] | 4 | 3 | 5 | 4 | 5 | 1 | – | – | – | – | – | –
COC1=C(C)C(=O)N(c2cc(C(F)(F)F)c(Oc3ccccc3)cn2)C1O (stereo not drawn) [AD88] | 5 | 3 | 5 | 4 | 5 | 1 | – | – | – | – | – | –
COC1=C(C)C(=O)N(c2cc(C(F)(F)F)c(OCCOCc3ccccc3)cn2)C1O (stereo not drawn) [AD81] | – | – | – | – | – | – | 5 | 2 | 5 | 2 | 3 | 1
COC1=C(C)C(=O)N(c2cc(C(F)(F)F)c(-c3ccccc3[N+](=O)[O-])cn2)C1O (stereo not drawn) [AD129] | 5 | 2 | 5 | 4 | 4 | 2 | – | – | – | – | – | –
CC1=C(Cl)C(O)N(c2cc(C(F)(F)F)c(C(=O)OC(C)(C)C)cn2)C1=O (stereo not drawn) [AA45] | 2 | 2 | 3 | 1 | 2 | 1 | – | – | – | – | – | –
C=C(C)COc1cnc(N2C(=O)C(C)=C(OC)C2O)cc1C(F)(F)F (stereo not drawn) [AD77] | – | – | – | – | – | – | 5 | 3 | 5 | 1 | 4 | 0
